Data set [1] can be described thus: in vitro. As to conditions: human, hepg2 cells.
For another data set, the system named is SARS-CoV-2. Nature of the data set: microbe, parasite or virus in culture. The format is cell-based, SARS-CoV-2 strain USA-WA1/2020. As to conditions: Severe acute respiratory syndrome coronavirus 2, HeLa-ACE2, 24 h, read-out: SARS-CoV-2 / HeLa-ACE2 EC50.
The next data set relates to DENV-2. Nature of the data set: microbe, parasite or virus in culture. The data set is classed as cell-based, DENV-2 16681. As to conditions: Dengue virus, DENV2, HepG2, 24 h, read-out: DENV-2 / HepG2 EC50.
A short description of data set [2]: in vitro. As to conditions: human, hela-ace2 cells.
The test system of another data set is CHIKV. Kind of data set: microbe, parasite or virus in culture. The conditions noted are these: Chikungunya virus, HepG2, 24 h, read-out: CHIKV / HepG2 EC50. The data set is classed as cell-based, CHIKV strain 181/25.
In another data set the test system is HRV 14. Nature of the data set: microbe, parasite or virus in culture. The format is cell-based, Human Rhinovirus 14 strain 1059. As to conditions: Rhinovirus B, H1-HeLa, 48 h, read-out: HRV / H1 HeLa B 14 EC50.
A short description of data set [3]: in vitro. As to conditions: human, hep2 cells.
For a further data set, the system named is YFV. Kind of data set: microbe, parasite or virus in culture. The data set is classed as cell-based, YFV strain 17D. The conditions noted are these: Yellow fever virus, HepG2, 24 h, read-out: YFV / HepG2 EC50.
Another data set has as its system RSV A2. Nature of the data set: microbe, parasite or virus in culture. As to conditions: human respiratory syncytial virus, HEp-2, 72 h, read-out: RSV A2 / Hep2 EC50. The data set is classed as cell-based.
Data set [4] can be described thus: in vitro. As to conditions: human, h1 hela cells.
In another data set the test system is ZIKV. Nature of the data set: microbe, parasite or virus in culture. The format is cell-based, ZIKV MR766. As to conditions: Zika virus, HepG2, 24 h, read-out: ZIKV / HepG2 EC50.
A further data set deals with HRV 16. Nature of the data set: microbe, parasite or virus in culture. The data set is classed as cell-based, Human Rhinovirus 16 strain 11757. As to conditions: Rhinovirus A, H1-HeLa, 48 h, read-out: HRV / H1 HeLa A16 EC50.
The next data set concerns HCMV. Nature of the data set: HCMV/HFF antiviral assay. The format is cell-based. The conditions noted are these: Human betaherpesvirus 5, HFF.
The nature of another data set: Cytotoxicity, HFF. The data set is classed as cell-based. The conditions noted are these: human, hff cells; read-out: HCMV/HFF CC50.

Structures are written as SMILES. Some results are limits rather than exact numbers.

Consider `[N-]=[N+]=N[C@]1(CO)O[C@@H](n2ccc3c(N)ncnc32)[C@H](O)[C@@H]1O` [Example 2, (2R,3S,4R,5R)-5-(4-amino-7H-pyrrolo[2,3-d]pyrimidin-7-yl)-2-azido-2-(hydroxymethyl)tetrahydrofuran-3,4-diol], for which the CC50 at 72 h in the data set “in vitro [1]” was > 99 µM. The EC50 in the data set with SARS-CoV-2, with DENV-2 and with CHIKV was > 10 µM each time. Besides, the CC50 at 24 h in the data set “in vitro [2]” is > 99 µM.

With `OC[C@]1(F)O[C@@H](n2ccc3c(Cl)ncnc32)[C@H](O)[C@@H]1O` [Example 5, (2R,3S,4R,5R)-5-(4-chloro-7H-pyrrolo[2,3-d]pyrimidin-7-yl)-2-fluoro-2-(hydroxymethyl)tetrahydrofuran-3,4-diol], in “in vitro [1]”, the CC50 at 72 h is > 99 µM. The EC50 in the data set with SARS-CoV-2 is > 10 µM; with HRV 14, 1 to 10 µM; in the data set on YFV it was 1 to 10 µM; with RSV A2, > 10 µM; in the data set on DENV-2, 0.1 to 1 µM; in the data set with ZIKV, 1 to 10 µM. Besides, the CC50 in “in vitro [3]” and in the data set “in vitro [4]” was > 99 µM each time. Also, the CC50 at 24 h in the data set “in vitro [2]” is > 99 µM.

Turning to `O=c1[nH]cnc2c1ccn2[C@@H]1O[C@](F)(CO)[C@@H](O)[C@H]1O` [Example 16, 7-((2R,3R,4S,5S)-5-fluoro-3,4-dihydroxy-5-(hydroxymethyl)tetrahydrofuran-2-yl)-3,7-dihydro-4H-pyrrolo[2,3-d]pyrimidin-4-one], the EC50 with HRV 16, in the data set with SARS-CoV-2, in the data set on HRV 14, in the data set on RSV A2, in the data set with DENV-2 and in the data set with HCMV was > 10 µM in each case. Also, the CC50 at 72 h in “in vitro [1]” was > 99 µM. Also, the CC50 in the data set “in vitro [3]” was > 99 µM; in “in vitro [4]”, > 99 µM; in “Cytotoxicity, HFF”, > 99 µM. For the same molecule, the CC50 at 24 h in the data set “in vitro [2]” was > 99 µM.

In turn, `Nc1ncnc2c1c(CO)cn2[C@@H]1O[C@](F)(CO)[C@@H](O)[C@H]1O` [Example 17, (2S,3S,4R,5R)-5-(4-amino-5-(hydroxymethyl)-7H-pyrrolo[2,3-d]pyrimidin-7-yl)-2-fluoro-2-(hydroxymethyl)tetrahydrofuran-3,4-diol] returned a CC50 at 72 h in the data set “in vitro [1]” of 10 to 99 µM. The EC50 in the data set on SARS-CoV-2, in the data set on DENV-2 and in the data set on CHIKV was > 10 µM each time. For the same molecule, the CC50 at 24 h in the data set “in vitro [2]” is > 99 µM.

Regarding `Nc1ncnn2c([C@@H]3O[C@](F)(CO)[C@@H](O)[C@H]3O)cnc12` [Example 19, (2S,3S,4R,5S)-5-(4-aminoimidazo[2,1-f][1,2,4]triazin-7-yl)-2-fluoro-2-(hydroxymethyl)tetrahydrofuran-3,4-diol], the EC50 is > 10 µM with HRV 16; 1 to 10 µM with SARS-CoV-2; > 10 µM with HRV 14; > 10 µM in the data set on RSV A2; 0.1 to 1 µM with DENV-2; 0.1 to 1 µM in the data set with CHIKV. The CC50 at 72 h in the data set “in vitro [1]” was < 1 µM. For the same molecule, the CC50 in the data set “in vitro [3]” and in “in vitro [4]” was 1 to 10 µM throughout. In addition, in “in vitro [2]”, the CC50 at 24 h lay in the range of 1 to 10 µM.

On to `Nc1ncnc2c1ccn2[C@@H]1O[C@@](CO)(CF)[C@@H](O)[C@H]1O` [Example 20, (2R,3S,4R,5R)-5-(4-amino-7H-pyrrolo[2,3-d]pyrimidin-7-yl)-2-(fluoromethyl)-2-(hydroxymethyl)tetrahydrofuran-3,4-diol], for which the EC50 in the data set with HRV 16, in the data set on SARS-CoV-2, with HRV 14, in the data set with RSV A2, with DENV-2 and in the data set with HCMV was > 10 µM in each case. For the same molecule, the EC50 in the data set with CHIKV is > 10 µM. Moreover, in “in vitro [1]”, the CC50 at 72 h is > 99 µM. Besides, the CC50 was 10 to 99 µM in “in vitro [3]”; > 99 µM in “in vitro [4]”; > 99 µM in the data set “Cytotoxicity, HFF”. In addition, the CC50 at 24 h in the data set “in vitro [2]” lay within 10 to 99 µM.

On to `Nc1ncnc2c1ccn2[C@@H]1C[C@](F)(CO)[C@@H](O)[C@H]1O` [Example 30, (1S,2S,3S,5R)-5-(4-amino-7H-pyrrolo[2,3-d]pyrimidin-7-yl)-3-fluoro-3-(hydroxymethyl)cyclopentane-1,2-diol], for which the EC50 in the data set on HRV 16 is > 10 µM; in the data set with SARS-CoV-2, > 10 µM; in the data set on HRV 14 it was > 10 µM; in the data set on RSV A2, 0.1 to 1 µM; with DENV-2 it was > 10 µM; in the data set with CHIKV it was > 10 µM. The same molecule showed a CC50 at 72 h in the data set “in vitro [1]” of 10 to 99 µM. In addition, the CC50 in the data set “in vitro [3]” lay within 1 to 10 µM; in “in vitro [4]”, 10 to 99 µM. In “in vitro [2]”, the CC50 at 24 h lay within 10 to 99 µM.

For the molecule `Nc1nc(F)nc2c1ncn2[C@@H]1O[C@](F)(CO)[C@@H](O)[C@H]1O` [Example 31, (2S,3S,4R,5R)-5-(6-amino-2-fluoro-9H-purin-9-yl)-2-fluoro-2-(hydroxymethyl)tetrahydrofuran-3,4-diol], the EC50 with HRV 16 is > 10 µM; in the data set with SARS-CoV-2, 1 to 10 µM; with HRV 14 it was > 10 µM; in the data set on RSV A2, > 10 µM; in the data set with DENV-2, 0.1 to 1 µM; in the data set on CHIKV, 0.1 to 1 µM. The CC50 at 72 h in the data set “in vitro [1]” was < 1 µM. In addition, the CC50 in the data set “in vitro [3]” was < 1 µM; in the data set “in vitro [4]”, 1 to 10 µM. The CC50 at 24 h in “in vitro [2]” lay in the range of 1 to 10 µM.

With `N#C[C@]1(CO)O[C@@H](n2ccc3c(N)ncnc32)[C@H](O)[C@@H]1O` [Example 32, (3S,4R,5R)-5-(4-amino-7H-pyrrolo[2,3-d]pyrimidin-7-yl)-3,4-dihydroxy-2-(hydroxymethyl)tetrahydrofuran-2-carbonitrile], the EC50 in the data set on HRV 16, with SARS-CoV-2, with HRV 14, with RSV A2, in the data set with DENV-2 and with CHIKV was > 10 µM in each case. In “in vitro [1]”, the CC50 at 72 h was > 99 µM. In addition, the CC50 in the data set “in vitro [3]” and in the data set “in vitro [4]” was > 99 µM in each case. Moreover, the CC50 at 24 h in the data set “in vitro [2]” is > 99 µM.

For `OC[C@@]1(F)O[C@@H](n2cc(Cl)c3cncnc32)[C@H](O)[C@@H]1O` [Example 36, (2S,3S,4R,5R)-5-(5-chloro-7H-pyrrolo[2,3-d]pyrimidin-7-yl)-2-fluoro-2-(hydroxymethyl)tetrahydrofuran-3,4-diol], the CC50 at 72 h in “in vitro [1]” was < 1 µM. For the same molecule, the EC50 with SARS-CoV-2 is 0.1 to 1 µM; in the data set on HRV 14 it was > 10 µM; with RSV A2, 1 to 10 µM; with DENV-2, < 0.1 µM; in the data set on HCMV, 0.1 to 1 µM. In addition, the CC50 in the data set “in vitro [3]” lay in the range of 10 to 99 µM; in “in vitro [4]” it was 10 to 99 µM; in the data set “Cytotoxicity, HFF”, 1 to 10 µM. The CC50 at 24 h in “in vitro [2]” lay in the range of 1 to 10 µM.

Take `Nc1nc2c(ncn2[C@H]2C[C@H](O)[C@@](F)(CO)O2)c(=O)[nH]1` [Example 40, 2-amino-9-((2R,4S,5S)-5-fluoro-4-hydroxy-5-(hydroxymethyl)tetrahydrofuran-2-yl)-1,9-dihydro-6H-purin-6-one]: the CC50 at 72 h in “in vitro [1]” was > 99 µM. Further, the EC50 in the data set on SARS-CoV-2, in the data set with YFV, in the data set with DENV-2 and with ZIKV was > 10 µM each time. Further, in “in vitro [2]”, the CC50 at 24 h was > 99 µM.

Take `CCOc1nc(N)nc2c1ncn2[C@@H]1O[C@](F)(CO)[C@@H](O)C1(F)F` [Example 60, (2S,3R,5R)-5-(2-amino-6-ethoxy-9H-purin-9-yl)-2,4,4-trifluoro-2-(hydroxymethyl)tetrahydrofuran-3-ol]: the CC50 at 72 h in the data set “in vitro [1]” is > 99 µM. Also, the EC50 with SARS-CoV-2, in the data set on HRV 14, with RSV A2, in the data set with DENV-2 and with HCMV was > 10 µM each time. The CC50 is > 99 µM in the data set “in vitro [3]”; > 99 µM in “in vitro [4]”; > 99 µM in “Cytotoxicity, HFF”. In the data set “in vitro [2]”, the CC50 at 24 h is > 99 µM.

The values are drawn from patent publication US20260325561A1, “4'-SUBSTITUTED NUCLEOSIDES AND NUCLEOTIDES AS ANTIVIRAL AGENTS” (THE SCRIPPS RESEARCH INSTITUTE, priority 2023, published 2026).
